Data set [1] has as its target T1, Solute carrier organic anion transporter family member 1B3 (Homo sapiens, UniProt Q9NPD5).
T1 sequence (Q9NPD5 whole entry): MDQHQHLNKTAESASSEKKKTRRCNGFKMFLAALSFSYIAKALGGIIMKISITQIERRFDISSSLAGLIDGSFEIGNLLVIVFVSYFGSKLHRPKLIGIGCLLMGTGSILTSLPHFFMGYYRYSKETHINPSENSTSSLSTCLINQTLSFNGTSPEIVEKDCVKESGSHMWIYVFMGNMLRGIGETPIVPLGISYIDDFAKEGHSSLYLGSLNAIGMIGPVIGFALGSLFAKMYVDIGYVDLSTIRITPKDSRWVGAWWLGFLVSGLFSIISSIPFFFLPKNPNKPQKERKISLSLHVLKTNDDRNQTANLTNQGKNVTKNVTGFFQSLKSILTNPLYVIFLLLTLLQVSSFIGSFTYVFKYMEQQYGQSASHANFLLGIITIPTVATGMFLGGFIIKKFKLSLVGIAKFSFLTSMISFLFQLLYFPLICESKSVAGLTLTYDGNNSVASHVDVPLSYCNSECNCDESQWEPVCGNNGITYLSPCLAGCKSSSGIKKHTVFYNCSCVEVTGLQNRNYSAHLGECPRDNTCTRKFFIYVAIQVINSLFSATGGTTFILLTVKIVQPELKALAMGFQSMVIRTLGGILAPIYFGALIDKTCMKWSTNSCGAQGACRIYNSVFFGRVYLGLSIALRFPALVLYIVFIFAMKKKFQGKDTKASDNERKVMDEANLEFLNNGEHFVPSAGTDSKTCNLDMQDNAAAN
The experiment in a line: Substrate activity at OATP1B3 (unknown origin) expressed in HEK293 cells assessed as ratio of drug uptake in absence of transporter inhibitor, estradiol-17beta-glucuronide to drug uptake in presence of transporter inhibitor, estradiol-17beta-glucuronide by LC-MS/MS analysis. The data set is classed as ADME, cell-based.

Data set [2] concerns Hepatitis B virus. As to the kind of experiment: Antiviral activity against Hepatitis B virus infected in human HepG2.2.15 cells assessed as reduction in HBV pregenomic mRNA level at 1 uM measured after 5 days by Northern blot analysis. The data set is classed as functional, organism-based. As to conditions: time 5.0 day.
Data set [3] concerns the target Terminal nucleotidyltransferase 4B (Homo sapiens) (UniProt Q8NDF8). The experiment in a line: Inhibition of Myc-DDK-tagged human PAPD5 expressed in HEK293 cells assessed as inhibition of poly-adenylation reaction using P32-labeled RNA oligonucleotides (5'-GCCUUUCAUCUCUAACUGCGAAAAAAAAAA-3') as substrate measured for 20 mins by phosphor imaging analysis. As to conditions: dose 0.37-10 µM.

The nature of data set [4]: Metabolic stability in mouse liver microsomes assessed as half life preincubated with compound for 10 mins followed by NADPH regenerating system addition and measured for 60 mins by LC/MS-MS analysis. The data set is classed as ADME, Microsome. As to conditions: time 70 min.
Data set [5] deals with T2, Cytochrome P450 1A2 (Homo sapiens, UniProt P05177).
T2 sequence (P05177 whole entry): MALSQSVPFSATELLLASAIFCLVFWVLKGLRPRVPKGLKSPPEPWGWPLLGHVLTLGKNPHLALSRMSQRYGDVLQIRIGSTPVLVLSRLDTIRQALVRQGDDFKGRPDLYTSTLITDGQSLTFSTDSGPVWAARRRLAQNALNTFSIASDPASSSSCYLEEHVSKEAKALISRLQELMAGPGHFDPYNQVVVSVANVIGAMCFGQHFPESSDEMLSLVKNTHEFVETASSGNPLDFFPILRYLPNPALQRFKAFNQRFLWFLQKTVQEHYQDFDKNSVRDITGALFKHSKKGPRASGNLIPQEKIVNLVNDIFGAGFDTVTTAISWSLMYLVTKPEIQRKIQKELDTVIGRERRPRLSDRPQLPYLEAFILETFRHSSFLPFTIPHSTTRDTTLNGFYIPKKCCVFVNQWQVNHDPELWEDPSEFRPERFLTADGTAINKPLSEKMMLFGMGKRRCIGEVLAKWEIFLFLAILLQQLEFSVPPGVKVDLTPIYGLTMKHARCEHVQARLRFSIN
The experiment in a line: Inhibition of CYP1A2 in human liver microsomes using phenacetin as substrate preincubated for 5 mins followed by NADPH addition by LC-MS/MS analysis. The data set is classed as ADME. A general note: Microsomes from liver hold many membrane-bound enzymes, among them those of drug oxidation.

Data set [6] deals with T3, Cytochrome P450 2C8 (Homo sapiens, UniProt P10632).
T3 sequence (P10632 whole entry): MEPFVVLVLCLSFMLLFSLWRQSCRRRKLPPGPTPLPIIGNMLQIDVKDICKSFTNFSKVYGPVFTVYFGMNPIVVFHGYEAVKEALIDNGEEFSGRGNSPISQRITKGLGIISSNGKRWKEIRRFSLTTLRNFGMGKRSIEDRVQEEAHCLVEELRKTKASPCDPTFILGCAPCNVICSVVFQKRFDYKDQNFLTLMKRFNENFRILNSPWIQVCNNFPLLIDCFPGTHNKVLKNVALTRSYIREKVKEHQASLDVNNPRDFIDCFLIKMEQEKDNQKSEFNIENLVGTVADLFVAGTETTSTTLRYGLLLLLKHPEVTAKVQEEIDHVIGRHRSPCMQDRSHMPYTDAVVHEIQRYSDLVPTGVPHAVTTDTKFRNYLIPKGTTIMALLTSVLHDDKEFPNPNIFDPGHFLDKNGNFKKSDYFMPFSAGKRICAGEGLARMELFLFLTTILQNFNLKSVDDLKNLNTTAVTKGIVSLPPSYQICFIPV
The experiment in a line: Inhibition of CYP2C8 in human liver microsomes using paclitaxel as substrate preincubated for 5 mins followed by NADPH addition by LC-MS/MS analysis. The data set is classed as ADME.

Data set [7] in a line: Volume of distribution at steady state in CD-1 mouse at 3 mg/kg, iv measured for 24 hrs by LC-MS/MS analysis. The data set is classed as ADME, organism-based. The note with it: in vivo, read-out: Vdss.
Data set [8] can be described thus: Half life in CD-1 mouse liver at 8 mg/kg, po measured for 24 hrs by LC-MS/MS analysis. The data set is classed as ADME, organism-based.
Data set [9] is described as follows: Cmax in CD-1 mouse liver at 8 mg/kg, po measured for 24 hrs by LC-MS/MS analysis. The data set is classed as ADME, organism-based. Details: route oral, dose 8 mg/kg, time 24 hrs.
The nature of data set [10]: Oral bioavailability in CD-1 mouse plasma at 8 mg/kg measured for 24 hrs by LC-MS/MS analysis. The data set is classed as ADME, organism-based.
Data set [11] is described as follows: Drug concentration in CD-1 mouse liver at 8 mg/kg, po measured after 15 mins by LC-MS/MS analysis. The data set is classed as ADME, organism-based. As to conditions: read-out: Ct.
Data set [12] can be described thus: Drug concentration in CD-1 mouse liver at 8 mg/kg, po measured after 4 hrs by LC-MS/MS analysis. The data set is classed as ADME, organism-based. As to conditions: read-out: Ct.
The nature of data set [13]: Drug concentration in CD-1 mouse liver at 8 mg/kg, po measured after 6 hrs by LC-MS/MS analysis. The data set is classed as ADME, organism-based. As to conditions: read-out: Ct.
Data set [14] is described as follows: Ratio of Cmax in liver to plasma in CD-1 mouse at 8 mg/kg, po by LC-MS/MS analysis. The data set is classed as ADME, organism-based.
For data set [15], the system named is Hepatitis B virus. As to the kind of experiment: Antiviral activity against Hepatitis B virus infected in human HepG2.2.15 cells assessed as reduction in HBV subgenomic 2.4/2.1 kb mRNA level at 1 uM measured after 5 days by Northern blot analysis. The data set is classed as functional, organism-based. As to conditions: time 5.0 day.
In data set [16] the target is Cytochrome P450 3A4 (Homo sapiens, UniProt P08684). The experiment in a line: Inhibition of CYP3A4 in human liver microsomes using testosterone as substrate preincubated for 5 mins followed by NADPH addition by LC-MS/MS analysis. The data set is classed as ADME.
Cytochrome P450 3A4, sequence (P08684 whole entry): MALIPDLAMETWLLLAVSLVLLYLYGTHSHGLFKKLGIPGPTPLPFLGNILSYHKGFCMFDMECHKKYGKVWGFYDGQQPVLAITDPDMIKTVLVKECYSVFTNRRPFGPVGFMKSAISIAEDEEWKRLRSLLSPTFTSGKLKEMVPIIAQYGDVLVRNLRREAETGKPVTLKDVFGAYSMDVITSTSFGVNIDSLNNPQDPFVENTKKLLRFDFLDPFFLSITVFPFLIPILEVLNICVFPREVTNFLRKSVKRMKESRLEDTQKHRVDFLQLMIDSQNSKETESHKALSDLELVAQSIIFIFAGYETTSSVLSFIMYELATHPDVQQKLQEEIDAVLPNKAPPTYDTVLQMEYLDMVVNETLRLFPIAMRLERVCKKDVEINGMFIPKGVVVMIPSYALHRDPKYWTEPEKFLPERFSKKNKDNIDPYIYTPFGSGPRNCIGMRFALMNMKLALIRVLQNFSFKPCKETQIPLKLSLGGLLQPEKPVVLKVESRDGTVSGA

In general, half-life refers to the time in which the quantity being followed falls by half. What is called pIC50 is the IC50 on a negative log10 scale, so that one unit is a factor of ten. Low readings indicate a large IC50, high ones a small IC50. Usually Cmax stands for the maximum level reached in the sampled fluid or tissue. By bioavailability is commonly meant dose-corrected exposure relative to a reference, in per cent. Read a low bioavailability as poor availability. Broadly, the Kp is the ratio of the level in a tissue or fluid to that in plasma or blood.

pIC50: −log10 of the molar value. Where “and” joins values, the source holds several entries; their conditions need not be identical. Identical values can stand only once. Calls of active or inactive are those of the source. The rule behind the calls is not given here. Some results are limits rather than exact numbers.

Terminal nucleotidyltransferase 4B (Homo sapiens), sequence (Q8NDF8 whole entry): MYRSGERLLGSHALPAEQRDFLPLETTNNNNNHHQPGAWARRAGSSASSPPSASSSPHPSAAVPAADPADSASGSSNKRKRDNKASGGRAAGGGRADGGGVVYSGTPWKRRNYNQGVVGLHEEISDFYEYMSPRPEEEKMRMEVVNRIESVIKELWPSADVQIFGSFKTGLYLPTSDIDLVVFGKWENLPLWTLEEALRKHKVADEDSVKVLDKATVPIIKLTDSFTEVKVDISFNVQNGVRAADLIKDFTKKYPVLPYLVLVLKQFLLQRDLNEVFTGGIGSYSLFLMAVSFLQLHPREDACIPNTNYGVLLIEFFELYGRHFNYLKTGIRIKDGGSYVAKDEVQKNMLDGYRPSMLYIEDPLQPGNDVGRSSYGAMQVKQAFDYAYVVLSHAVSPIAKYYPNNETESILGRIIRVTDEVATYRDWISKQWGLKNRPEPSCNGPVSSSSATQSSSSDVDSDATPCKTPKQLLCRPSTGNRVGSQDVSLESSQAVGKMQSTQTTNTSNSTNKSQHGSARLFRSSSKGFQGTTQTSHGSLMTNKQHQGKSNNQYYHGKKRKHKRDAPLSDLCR

Take `COc1cc2c(cc1OCCCCCCC(=O)O)C[C@@H](C(C)C)n1cc(C(=O)O)c(=O)cc1-2`: the Ratio in data set [1] is 11.57. The result in [2] and in [15] was Active. For the same compound, the inhibition entry in data set [3] is “Dose-Dependent Effect”. In addition, the half-life is 28.9 h in data set [4] and 3.54 h in [8]. The pIC50 in data set [5], in data set [6] and in data set [16] was below 5.00 throughout. Moreover, the Vd in data set [7] amounted to 3.26 L/kg. For the same compound, the Cmax in data set [9] amounted to 333 ng/mL. Moreover, in data set [10], the bioavailability came out at 5.1%. The concentration at 0.25 h in [11] is 333 ng/mL and 730 nM. In addition, in data set [12], the concentration at 4 h was 138 ng/mL and 300 nM. For the same compound, the concentration at 6 h in data set [13] is 76 ng/mL and 170 nM. In data set [14], the Kp amounted to 20.7.

The values above are taken from ChEMBL document CHEMBL4808208, “Hepatoselective Dihydroquinolizinone Bis-acids for HBsAg mRNA Degradation” (ACS Med Chem Lett, 2021).
